# Details: not given
SMILES,melting point [°C],log10 Koc (L/kg),log10 vapour pressure (mmHg),boiling point [°C],ready biodegradability,log10 Henry constant (atm·m³/mol)
O[C@@H]1CCc2ccccc2C1,15.5,,,,,
CCCOP(=S)(OCCC)SCC(=O)N1CCCCC1C (configuration not stated),,3.44,-6.62,,,
CCCCCCCCCC(C)O (configuration not stated),,,-1.48,,,
O=S(=O)(O)c1ccc(Nc2ccccc2)cc1,206,,,,,
FC(F)(F)C(Cl)=C(Cl)C(F)(F)F,-67.3,,,68.5,,
CN(C)c1ccc(C(O)c2ccc(N(C)C)cc2)cc1,101,,,,,
CC(=O)c1ccc(Cl)s1,52,,,,,
O=C(O)CCc1ccc(O)cc1,131,,,,,
CC(C)(C)c1cccc([N+](=O)[O-])c1,2,,,254,,
C=C(C)[C@H]1Cc2c(cc(O)c3c2O[C@@H]2COc4cc(OC)c(OC)cc4[C@@H]2C3=O)O1,195,,,,,
CN(C)c1ccc(N=O)cc1,92.5,,,,,
CC(C)C(C(C)C)C(C)C,-81.7,,,157,,
CCCCC(CC)CCC (configuration not stated),,,,164,,
N#CCc1ccccc1,-23.8,,-1.05,234,readily biodegradable,
N#Cc1c[nH]cc1-c1cccc2c1OC(F)(F)O2,200,,-8.53,,,
CCCCCS(=O)(=O)O,15.9,,,,,
NC1CCCCC1,-17.7,,1,134,readily biodegradable,-5.38
CCCOC(=O)c1ccccc1O,97,,,239,,
Nc1ccc2ncsc2c1,87,,,,,

SMILES,melting point [°C],log10 Koc (L/kg),log10 vapour pressure (mmHg),boiling point [°C],ready biodegradability,log10 Henry constant (atm·m³/mol)
C=CC1CN2CCC1CC2C(=O)c1ccnc2ccc(OC)cc12 (configuration not stated),108,,,,,
Nc1ccc(-c2ccccc2N)cc1,54.5,,,363,,
CN(C)CCc1ccc(O)cc1,118,,,,,
c1ccc(-c2oc(-c3ccccc3)c(-c3ccccc3)c2-c2ccccc2)cc1,175,,,,,
CN(C)C#N,,,,164,,
O=C(O)C(Br)C(Br)C(=O)O (configuration not stated),,,,,not readily biodegradable,
CCCCCCN1CC(C(=O)OC)CC1=O (configuration not stated),4,,,,,
CCCCCCCCCCCCc1ccccc1,3,,-4.29,328,readily biodegradable,
CCCCCS,-75.7,,1.14,127,,
COc1ccc(N=Nc2ccccc2)cc1,56,,,340,,
N=C(N)NC(N)=O,105,,,,,
N#Cc1ccccc1-c1ccccc1,41,,,,,
CCOC(=O)CC(SP(=S)(OC)OC)C(=O)OCC (configuration not stated),2.8,2.36,-5.47,,not readily biodegradable,-8.31
CCC(C)(C)C(C)(C)C,-9.8,,0.976,140,,
O=C(OOC(=O)c1ccccc1)c1ccccc1,105,,,,readily biodegradable,
CCCC(CCC)C(N)=O,125,,,,,
c1ccc(C2CCc3ccccc3O2)cc1 (configuration not stated),46.3,,,332,,
O=C(C(Cl)Cl)C(Cl)(Cl)Cl,2.1,,,,,
BrCC(Br)CBr,16.9,,,222,,

SMILES,melting point [°C],log10 Koc (L/kg),log10 vapour pressure (mmHg),boiling point [°C],ready biodegradability,log10 Henry constant (atm·m³/mol)
Cc1cc2ccccc2n1C,56.5,,,,,
S=C1CCCCCN1,108,,,,,
COc1ccccc1-c1ccccc1,29,,,274,,
Cc1ccccc1N=C=O,,,,185,,
C=CC(N)=O,84.5,1.7,-2.15,193,readily biodegradable,
CCC1(c2ccccc2)NC(=O)N(C)C1=O (configuration not stated),136,,,,,
c1ccc2c(c1)Sc1ccccc1N2CC1CN2CCC1CC2 (configuration not stated),130,,,,,
Oc1cc(Br)cc(Br)c1,81,,,274,,
Clc1ccnc2ccccc12,34.5,,,262,,
ClC1CC2CCC1C2 (configuration not stated),-5,,,162,,
CC(C)CCSSCCC(C)C,,,,247,,
COc1ccc2c(c1)O[C@H]1c3ccc(O)cc3OC[C@@H]21,128,,,,,
CCCCCCCCC(=O)OCC,-36.7,,,227,,
Clc1ccc2cc(Cl)ccc2c1,140,,,285,,
COC(=O)/C=C\C(=O)OC,,,-0.523,198,,
O=Cc1ccccc1F,-44.5,,,175,,
Cc1cccc(I)c1O,15.5,,,,,
COc1ccccc1O,32,1.56,-0.987,205,readily biodegradable,-5.92
C=C(C)C=C(C)C,-114,,,93.2,,

# Same assay, conditions: fish
SMILES,log10 BCF,log10 biotransformation half-life (days)
CCOCC,0.73,-0.7
C=C(C)CCCCCCCCC,,0.17
CC1(C)[C@H](C(=O)O[C@H](C#N)c2cccc(Oc3ccccc3)c2)[C@@H]1C=C(Br)Br,2.51,0.51
Brc1ccc(Oc2ccc(Br)c(Br)c2Br)c(Br)c1,,1.34
Clc1ccc(Cl)c(-c2ccc(Cl)c(Cl)c2Cl)c1,5.38,2.31
Clc1cc2c(cc1Cl)Oc1cc(Cl)c(Cl)cc1O2,4.99,1.78
O=C(O)C(Br)C(Br)C(=O)O (configuration not stated),0.81,
CCOC(=O)CC(SP(=S)(OC)OC)C(=O)OCC (configuration not stated),1.52,0.29

# From the OPERA property sets (Mansouri et al. 2018)
